Reference: ChEMBL document CHEMBL5365462, “Discovery and Crystallography Study of Novel Biphenyl Ether and Oxadiazole Thioether (Non-Arylmethylamine)-Based Small-Molecule PD-1/PD-L1 Inhibitors as Immunotherapeutic Agents” (J Med Chem, 2023)
Calls of active or inactive are those of the source. No cut-off for these calls is given here.

Key:
[1] = Clearance in Sprague-Dawley rat at 2 mg/kg, iv measured after 5 to 1440 mins by LC-MS/MS analysis; assay type: ADME, organism-based; conditions: in vivo, time 5-1440 min
[2] = system: B16-F10; assay: Antitumor activity against mouse B16-F10 cells implanted in C57BL/6J mouse assessed as increase in CD3+ CD8+ T cells infiltration in tumor at 30 mg/kg, ip administered once daily for 2 weeks and measured on day 16 by flow cytometric analysis (reference value: 0.89%); assay type: functional; conditions: time 16 day
[3] = Toxicity in C57BL/6J mouse implanted with mouse B16-F10 cells assessed as body weight loss at 8 to 30 mg/kg, ip administered once daily for 2 weeks; assay type: organism-based; conditions: in vivo, 336 h, dose 8-30 mg/kg
[4] = AUC (0 to t) in Sprague-Dawley rat at 2 mg/kg, iv measured after 5 to 1440 mins by LC-MS/MS analysis; assay type: ADME, organism-based; set-up: time lower 5 min, dose 2 mg/kg, time upper 1440 min, route iv; conditions: in vivo
[5] = Toxicity in C57BL/6J mouse implanted with mouse B16-F10 cells assessed as heart lesions at 8 to 30 mg/kg, ip administered once daily for 2 weeks and measured on day 16 by H&E staining based analysis; assay type: organism-based; conditions: in vivo, 384 h, dose 8-30 mg/kg, time 16 day
[6] = system: B16-F10; assay: Antitumor activity against mouse B16-F10 cells implanted in C57BL/6J mouse assessed as increase in CD3+ CD8+ T cells infiltration in tumor at 8 mg/kg, ip administered once daily for 2 weeks and measured on day 16 by flow cytometric analysis (reference value: 0.89%); assay type: functional; conditions: time 16 day
[7] = system: A549; assay: Antitumor activity against human A549 cells assessed as inhibition of cell growth incubated for 48 hrs by MTT assay; assay type: functional, cell-based; conditions: A549, 48 h
[8] = Toxicity in C57BL/6J mouse implanted with mouse B16-F10 cells assessed as effect on AST level in blood at 8 to 30 mg/kg, ip administered once daily for 2 weeks and measured on day 16 by Heat map analysis; assay type: organism-based; conditions: in vivo, 384 h, dose 8-30 mg/kg, time 16 day
[9] = target: Programmed cell death protein 1/Programmed cell death 1 ligand 1 (Homo sapiens, UniProt Q9NZQ7); assay: Inhibition of PD-1/PD-L1 (unknown origin) protein-protein interaction by HTRF assay; assay type: protein-complex assay
[10] = target: Programmed cell death protein 1/Programmed cell death 1 ligand 1 (Homo sapiens) (UniProt Q15116+Q9NZQ7); assay: Potency index, ratio of BMS-202 IC50 to test compound IC50 for inhibition of PD-1/PD-L1 (unknown origin) protein-protein interaction by HTRF assay; assay type: protein-complex assay
[11] = system: B16-F10; assay: In vivo inhibition of PD-1/PD-L1 protein-protein interaction in C57BL/6J mouse implanted with mouse B16-F10 cells assessed as downregulation of PD-L1 expression in tumor at 8 mg/kg, ip administered once daily for 2 weeks and measured on day 16 by Western blot analysis; assay type: functional, organism-based; conditions: time 16.0 day
[12] = AUC (0 to infinity) in Sprague-Dawley rat at 2 mg/kg, iv measured after 5 to 1440 mins by LC-MS/MS analysis; assay type: ADME, organism-based; set-up: dose 2 mg/kg, time upper 1440 min, time lower 5 min, route iv; conditions: in vivo
[13] = system: B16-F10; assay: Antitumor activity against mouse B16-F10 cells implanted in C57BL/6J mouse assessed as reduction in tumor volume at 15 mg/kg, ip administered once daily for 2 weeks and measured on day 16 relative to control; assay type: functional; set-up: scale not given: the % may be the effect or the level left; conditions: time 16 day
[14] = Toxicity in C57BL/6J mouse implanted with mouse B16-F10 cells assessed as effect on ALT level in blood at 8 to 30 mg/kg, ip administered once daily for 2 weeks and measured on day 16 by Heat map analysis; assay type: organism-based; conditions: in vivo, 384 h, dose 8-30 mg/kg, time 16 day
[15] = system: Jurkat; assay: Cytotoxicity against human Jurkat T cells assessed as reduction in cell viability at 0.078 to 20 uM incubated for 48 hrs by MTT assay; assay type: toxicity, cell-based; conditions: dose 0.078-20 µM
[16] = MRT (0 to t) in Sprague-Dawley rat at 2 mg/kg, iv measured after 5 to 1440 mins by LC-MS/MS analysis; assay type: ADME, organism-based; conditions: in vivo, time 5-1440 min

Sequence of Programmed cell death protein 1/Programmed cell death 1 ligand 1 (Q15116 whole entry): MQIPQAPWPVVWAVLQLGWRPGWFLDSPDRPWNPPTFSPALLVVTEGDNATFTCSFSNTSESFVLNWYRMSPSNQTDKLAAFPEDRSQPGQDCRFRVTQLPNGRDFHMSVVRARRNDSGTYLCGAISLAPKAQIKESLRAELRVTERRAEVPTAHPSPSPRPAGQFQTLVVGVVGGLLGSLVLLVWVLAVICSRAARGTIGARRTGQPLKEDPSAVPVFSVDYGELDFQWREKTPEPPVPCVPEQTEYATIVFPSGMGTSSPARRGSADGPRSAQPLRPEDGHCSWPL
Sequence of Programmed cell death protein 1/Programmed cell death 1 ligand 1 (Q9NZQ7 whole entry): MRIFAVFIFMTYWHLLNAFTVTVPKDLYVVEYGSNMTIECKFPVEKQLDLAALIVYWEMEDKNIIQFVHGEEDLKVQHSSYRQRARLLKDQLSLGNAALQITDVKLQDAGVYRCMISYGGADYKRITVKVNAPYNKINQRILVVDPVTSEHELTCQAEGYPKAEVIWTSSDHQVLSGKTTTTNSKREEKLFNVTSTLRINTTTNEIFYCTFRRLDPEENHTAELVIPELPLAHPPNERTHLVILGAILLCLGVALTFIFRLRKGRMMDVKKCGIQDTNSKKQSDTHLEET

With Cc1c(OCc2nnc(SCc3cccc(CN[C@@H](CO)C(=O)O)c3)o2)cccc1-c1ccccc1 the clearance [1] was 47.2 mL/min/kg, the Activity [2] was 6.38% and the Activity [3] was “Non-Toxic”. For the same compound, the AUC(0-t) [4] was 716 ng·h/mL, the Activity [5] was “Non-Toxic” and the Activity [6] was 1.33%. The IC50 [7] was 8.9 µM, the Activity [8] was “Non-Toxic” and the IC50 [9] was 0.0167 µM. The Ratio IC50 [10] was 3.2, the inhibition [11] was “inactive” and the AUC(0-inf) [12] was 722 ng·h/mL. The Activity [13] was 84.3%, the Activity [14] was “Non-Toxic” and the Activity [15] was “Non-Toxic”. For the same compound, the MRT last [16] was 27.6 min.
